The term kcat/KM denotes the turnover number divided by the Michaelis constant. By kcat is commonly meant the maximal rate divided by the concentration of active sites. One may read the Km as the concentration of substrate that gives half-maximal velocity.

The target of the experiment is T1, HDAC6 catalytic domain 2 (DD2) (Danio rerio, UniProt F8W4B7).
T1 construct: cloning the residues 440–798 of the Danio rerio HDAC6 gene into a modified pET28a(+) vector; 6xHis (N, cleaved yes); made in house; host or cells: E. coli BL21(DE3)
T1 sequence (F8W4B7 440-798): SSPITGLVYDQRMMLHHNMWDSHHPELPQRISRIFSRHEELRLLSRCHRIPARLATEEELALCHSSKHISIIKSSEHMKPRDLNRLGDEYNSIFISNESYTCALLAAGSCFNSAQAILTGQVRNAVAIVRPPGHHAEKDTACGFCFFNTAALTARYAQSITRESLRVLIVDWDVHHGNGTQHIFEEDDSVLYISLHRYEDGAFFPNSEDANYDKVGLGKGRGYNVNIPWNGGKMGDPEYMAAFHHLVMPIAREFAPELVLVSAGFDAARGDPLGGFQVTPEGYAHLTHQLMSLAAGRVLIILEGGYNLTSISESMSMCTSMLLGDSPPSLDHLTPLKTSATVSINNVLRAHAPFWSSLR
The experiment can be described thus: Enzyme-coupled acetate detection assay ('acetate assay') of HDAC6-catalyzed peptide deacetylation. It is filed as biochemical. The conditions noted are these: Michaelis–Menten fit ± standard error; for kcat/KM: 10–2000 μM monoacetylated substrate, 0.1–1 μM HDAC6 DD2, 50 mM HEPES pH 8.0, 137 mM NaCl, 2.7 mM KCl, 1 mM MgCl2, 30 °C, NADH fluorescence, lower limits where KM below detection limit. The source says: We used an enzyme-coupled acetate detection assay, or simply the ‘acetate assay’ (see “Methods”), developed and applied previously[12],[27], to measure the catalytic efficiency (kcat/KM) of HDAC6. We measured catalysis of deacetylation of acetylated peptides with sequences taken from known substrate proteins, as well as a set of selected peptides with reported acetylation sites that were available to us from previous studies (Table 1). […] To ensure an accurate determination of kcat/KM we measured HDAC6-catalyzed deacetylation at a minimum of four peptide concentrations, with at least two concentrations below KM (Fig. 1, squares). A total of 26 peptides which met these criteria formed our training set (D-TRAINING, Table 1). Additionally, we included 16 peptides where the value of kcat was measured accurately but the KM value was lower than the limit of detection for the acetate assay (~ 10–20 μM substrate, circles in Fig. 1) allowing only the determination of a lower limit for the value of kcat/KM (set D-CAPPED, see below and Table 1). The measured kcat/KM values span the range of three orders of magnitude.
Figure 1 Dependence of deacetylation rate on substrate concentration for two representative peptides catalyzed by HDAC6, measured using the acetate assay. The initial velocity for each substrate concentration was determined from a linear regression of a time course consisting of a minimum of three timepoints, standard error is shown. The kinetic parameters are determined from a nonlinear least square fit of the Michaelis–Menten equation to the data and are listed in Table 1. Black squares: example of data which met the criteria to produce accurate kcat/KM values. Green circles: example of overfit data resulting in calculation of a lower limit for kcat/KM, due to the KM being lower than the detection limit of the assay.
The coupled acetate detection assay or simply the ‘acetate assay’ was performed as previously described with a few modifications. Briefly, lyophilized peptides were re-suspended in water when possible or with minimal quantities of acid, base, or organic solvent to improve solubility. Peptide concentration was determined by one or more of the following methods: (1) measuring A280 using the extinction coefficients if the peptide contained a tryptophan or tyrosine, using the fluorescamine assay if the peptide contained a free lysine, (2) performing the bicinchoninic acid (BCA) assay using bovine serum albumin (BSA) as a standard, and (3) determining the concentration of acetate produced by complete deacetylation of the peptide by HDAC6.
Reactions containing 10–2000 μM monoacetylated peptides in 1× HDAC6 assay buffer (50 mM HEPES, pH 8.0, 137 mM NaCl, 2.7 mM KCl, 1 mM MgCl2) were initiated with 0.1–1 μM HDAC6 at 30 °C. […]

As for “RKSTGG(K-ac)APRKQL [13-mer: RKSTGG(K-ac)APRKQL, H3 K14ac 13-mer peptide]”, the kcat/KM is 140,000±10,000 M^−1 s^−1. For the same substance, the kcat/KM (listed as 13-mer peptide analog) stood at 140000 M⁻¹ s⁻¹. Moreover, the kcat (HDAC6 DD2, pH 8.0, 30 °C) turned out to be 4.1 ± 0.3 s⁻¹. The Km (HDAC6 DD2, pH 8.0, 30 °C, detection limit ~10–20 μM substrate) stood at 28 ± 5 µM.

The record behind these values is article PMC8810773, “Structure-based prediction of HDAC6 substrates validated by enzymatic assay reveals determinants of promiscuity and detects new potential substrates” (Scientific Reports, 2022).
